Reference: patent US20040223946A1, “Adhesive treatment for insect and related bites” (Closure Medical Corporation, priority 2003, published 2004)

Test: Observation of the monomer composition about one minute and at least twenty-four hours after preparation
Assay type: physicochemical
Settings: 1 wt % in 2 mL 2-octyl cyanoacrylate monomer
Protocol: A 2-octyl cyanoacrylate monomer composition is prepared by adding 1 wt % menthol to 2 mL of 2-octyl cyanoacrylate monomer. The mixture is stirred.
The characteristics of the composition are observed at about one minute after preparation and later at least twenty-four hours after preparation.

CC1CCC(C(C)C)C(O)C1 (stereo not shown) [menthol]
solubility of the additive in 2-octyl cyanoacrylate monomer: soluble in the monomer
